For one data set, the system named is MRC-5 (human fibroblast). Nature of the data set: MTT cell survival assay, 96 h treatment (Example 1). The data set is classed as cell-based. The settings on record: MRC-5 fibroblast cells. The procedure: Effects of a treatment with increasing concentrations of a conjugate molecule of the invention (Cisplatin-D-TAT) and an unconjugated anti-cancer drug (Cisplatin) on the survival of IGROV-1 (ovary), IGROV-1/CDDP (ovary, cisplatin-resistant cell line), MCF-7 (breast), and MRC-5 (human fibroblast) (three human tumor cell lines and one human fibroblast cell line) was determined. Cells of each cell line were plated out (200 μl final volume of RPMI 1640 supplemeted with 10% FBS) in 96 well plates (5 different concentrations for each test substance, one control experiment) 5,000 to 40,000 cells per well (depending on the doubling time for each cell line) were incubated at 37° C. for 24 h before treatment with the test substances. Each experiment was carried 4×. Cell incubation after treatment was performed for 96 h at 37° C. The effects of Cisplatin-D-TAT and Cisplatin on the survival of these cell lines (in vitro cytotoxic activity) were measured by using an MTT assay. 20 μl of a 5 mg/ml solution 0.22 μl filtered tetrazolium reagent (MTT, Ref. M2003, Sigma) in Phosphate Buffered Saline (PBS, Ref BE17-517Q, Cambrex) were aded in each well. […] Absorbancy (OD) was determined in each well on a single wavelength spectrophotometer plate reader at 570 nm (Multiskan, Labsystem, Helsinki, Finland) Data were collected with Genesis software (Labsystem, Helsinki, Finland). […]
(In general: Tetrazolium dyes change colour on reduction, which living cells bring about.)

Data set [1] deals with IGROV-1/CDDP (ovary, cisplatin-resistant cell line). The description is as above. The note with it: for IC50: IGROV-1/CDDP cisplatin-resistant cells, MTT, 96 h, mean of four measurements; for resistance index of IGROV-1/CDDP compared to parental IGROV-1 cell line: approximate; for Resistance Index of IGROV-1/CDDP versus IGROV-1 cell line: ratio of IC50 IGROV-1/CDDP to IGROV-1. Type of data set: cell-based, human. The procedure:
(§1) Effects of a treatment with increasing concentrations of a conjugate molecule of the invention (Cisplatin-D-TAT) and an unconjugated anti-cancer drug (Cisplatin) on the survival of IGROV-1 (ovary), IGROV-1/CDDP (ovary, cisplatin-resistant cell line), MCF-7 (breast), and MRC-5 (human fibroblast) (three human tumor cell lines and one human fibroblast cell line) was determined. Cells of each cell line were plated out (200 μl final volume of RPMI 1640 supplemeted with 10% FBS) in 96 well plates (5 different concentrations for each test substance, one control experiment) 5,000 to 40,000 cells per well (depending on the doubling time for each cell line) were incubated at 37° C. for 24 h before treatment with the test substances. Each experiment was carried 4×. Cell incubation after treatment was performed for 96 h at 37° C. The effects of Cisplatin-D-TAT and Cisplatin on the survival of these cell lines (in vitro cytotoxic activity) were measured by using an MTT assay. 20 μl of a 5 mg/ml solution 0.22 μl filtered tetrazolium reagent (MTT, Ref. M2003, Sigma) in Phosphate Buffered Saline (PBS, Ref BE17-517Q, Cambrex) were aded in each well. Culture plates were incubated for 4 h at 37° C. The resulting supernatant was removed and formazan crystals were dissolved with 200 μl of DMSO per well. Absorbancy (OD) was determined in each well on a single wavelength spectrophotometer plate reader at 570 nm (Multiskan, Labsystem, Helsinki, Finland) Data were collected with Genesis software (Labsystem, Helsinki, Finland). IC50 (concentration of the drug inhibiting 50% of the cell growth) for the test substances was calculated for each cell line after plotting. Control cells were treated with vehicle.

The next data set deals with MCF-7 (breast). Described as above. The settings on record: MCF-7 cells. Type of data set: cell-based, human. The procedure:
as §1

The test system of another data set is IGROV-1 (ovary). The description is as above. Type of data set: cell-based, human. The settings on record: IGROV-1 cells, mean of four measurements. The procedure:
as §1

Data set [2] in a line: Octanol/water partition (shake-flask, HPLC at 214 nm), water solubility. The settings on record: 1 mM, 24 hours equilibration at room temperature, FIG. 10.
For data set [3], the system named is MCF-7 (human breast adenocarcinoma cell line). Nature of the data set: MTT cell survival assay, 96 h treatment (Example 2, oxaliplatin conjugates). Type of data set: cell-based. The settings on record: MCF-7 cells, Example 2, triplicate. How it is done:
(§2) Effects of a treatment with increasing concentrations of a conjugate molecule of the invention (D-Tat-oxaliplatin) on the survival of MCF-7 (human breast adenocarcinoma cell line) and SiHa (human cervix squamous carcinoma cell line) was determined. The effects of D-Tat-oxaliplatin was compared to the conjugate L-Tat-oxaliplatin and to two unconjugated anti-cancer drugs (Oxaliplatin and Cisplatin). Cells of each cell line (10′000 cells per well) were plated into 96 well plates (200 μl total volume of MEM supplemented with 10% FBS, 1% L-glutamine, 1% Na-pyruvate, 1% non-essential amino acids for MCF-7 and of MEM/Earle's supplemented with 10% FBS, 1% Na-pyruvate, 1% non-essential amino acids for SiHa cells). 6 to10 different concentrations for each test substance were tested. The control cells are non-treated. Cells were incubated at 37° C. for 24 h before treatment with the test substance. Each experiment was carried in triplicate. Cell incubation after treatment was performed for 96 hours at 37° C. The effects of the test molecules on the survival of these cell lines (in vitro cytotoxic activity) was measured by the MTT assay. 20 μl of a 5 mg/ml 0.22 μm filtered Thiazolyl Blue Tetrazolium Bromide solution (MTT, Sigma, Ref. No. 88415) in Phosphate Buffered saline (PBS, CHUV) were added to each well and the plate was incubated for 4 hours at 37° C. The supernatant was removed and formazan crystals were dissolved with DMSO (200 μl per well). Absorbancy (OD) was measured in a microplate reader at 595 nm (Expert Plus Reader, Asys Hitech). The IC50 (concentration of the drug inhibiting 50% of the cell growth) for the test substances was calculated using Prism software.

Data set [4] concerns SiHa (human cervix squamous carcinoma cell line). Described as above. Type of data set: cell-based. The settings on record: SiHa cells, Example 2, triplicate. How it is done: as §2
In data set [5] the test system is SiHa (humon cervix squamous carcinoma cell line). Nature of the data set: cells. Type of data set: cell-based, human. How it is done:
(§3) Effects of a treatment with increasing concentrations of a conjugate molecule of the invention (D-Tat-chlorambucil) on the survival of MCF-7 (human breast adenocarcinoma cell line) and SiHa (humon cervix squamous carcinoma cell line) was determined. The effects of D-Tat-chlorambucil was compared to the conjugate L-Tat-chlorambucil and to two unconjugated anti-cancer drugs (Chlorambucil and Cisplatin). Cells of each cell line (10′000 cells per well) were plated into 96 well plates (200 μtotal volume of MEM supplemented with 10% FBS, 1% L-glutamine, 1% Na-pyruvate, 1% non-essential amino acids for MCF-7 and of MEM/Earle's supplemented with 10% FBS, 1% Na-pyruvate, 1% non-essential amino acids for SiHa cells). 6 to 10 different concentrations for each test substance were tested. The control cells are non-treated. Cells were incubated at 37° C. for 24 h before treatment with the test substance. Each experiment was carried in triplicate. Cell incubation after treatment was performed for 96 hours at 37° C. The effects of the test molecules on the survival of these cell lines (in vitro cytotoxic activity) was measured by the MTT assay. 20 μl of a 5 mg/ml 0.22 μm filtered Thiazolyl Blue Tetrazolium Bromide solution (MTT, Sigma, Ref. No. 88415) in Phosphate Buffered saline (PBS, CHUV) were added to each well and the plate was incubated for 4 hours at 37° C. The supernatant was removed and formazan crystals were dissolved with DMSO (200 μl per well). Absorbancy (OD) was measured in a microplate reader at 595 nm
(§4) (Expert Plus Reader, Asys Hitech). The IC50 (concentration of the drug inhibiting 50% of the cell growth) for the test substances was calculated using Prism software.

For data set [6], the system named is MCF-7 (human breast adenocarcinoma cell line). Nature of the data set: cells. The data set is classed as cell-based. How it is done: as §3, §4

Values joined by “and” are separate entries in the source; they are usually repeats but may differ in a detail not shown here. Equal entries are not always repeated. Where two headings read alike, the source gives them in different places. Square brackets hold non-standard residues; d marks the D form.

Data on six molecules can be found in patent publication US20100256041A1, “Conjugate Molecule Compounds With Enhanced Cell Uptake Activity” (priority 2004, published 2010).

As usually defined, the IC50 is the midpoint of a concentration-inhibition curve. For the molecule “Cisplatin-D-TAT (H-[dM]GG[dR][dR][dR][dQ][dR][dR][dK][dK][dR]-NH2; also: cisplatin conjugate)”, the IC50 was determined as 20.6 µM in the data set on MRC-5 (human fibroblast), 35.3 µM in data set [1], 4.89 µM in the data set with MCF-7 (breast) and 18.4 µM in the data set on IGROV-1 (ovary). The “resistance index of IGROV-1/CDDP compared to parental IGROV-1 cell line” value in data set [1] is recorded as “approximately two”. Besides, in data set [1], the “Resistance Index of IGROV-1/CDDP versus IGROV-1 cell line” value worked out at 1.9.

As for `CC(C)(C)NC(=O)[C@@H]1C[C@@H]2CCCC[C@@H]2CN1C[C@@H](O)[C@H](Cc1ccccc1)NC(=O)[C@H](CC(N)=O)NC(=O)c1ccc2ccccc2n1` [saquinavir], the “water solubility (compound partitioned in water, octanol/water)” value in data set [2] is listed as “only partially soluble in water”.

Consider `COc1cccc2c1C(=O)c1c(O)c3c(c(O)c1C2=O)C[C@@](O)(C(=O)CO)C[C@@H]3O[C@H]1C[C@H](N)[C@H](O)[C@H](C)O1` [doxorubicine], for which the “water solubility (compound partitioned in water, octanol/water)” value in data set [2] is listed as “almost perfectly soluble in water”.

In the case of `N.N.[Cl][Pt][Cl]` [Cisplatin, cis-diamindichloroplatin (II)], the IC50 in data set [3] is 9.1 µM; in data set [4], 11.1 µM; in the data set on MRC-5 (human fibroblast), 4.88 µM; in data set [5] (SiHa cells, MTT, 96 h, Example 3, triplicate, read-out: IC50), 7 µM and 7.03 µM; in [1] it was 52.3 µM; in the data set with MCF-7 (breast), 2.68 µM. Also, the IC50 in the data set with IGROV-1 (ovary) was 1.2 µM; in [6] (MCF-7 cells, MTT, 96 h, Example 3, triplicate, read-out: IC50) it was 7 µM and 7.96 µM. Besides, the “resistance index of IGROV-1/CDDP compared to parental IGROV-1 cell line” value in data set [1] was “approximately 40 fold”. In [1], the “Resistance Index of IGROV-1/CDDP versus IGROV-1 cell line” value stood at 43.6.

Consider `O=C(O)C(=O)O.[NH-][C@@H]1CCCC[C@H]1[NH-].[Pt+2]` [oxaliplatin], for which the IC50 stood at 1.5 µM in data set [3] and 11.1 µM in data set [4].

With `O=C(O)CCCc1ccc(N(CCCl)CCCl)cc1` [chlorambucil], the “water solubility (compound partitioned in water, octanol/water)” value in [2] is on record as “very low water solubility”. Further, the IC50 in data set [5] (Homo sapiens, SiHa) is over 1000 µM; in [5] (Homo sapiens, SiHa, 96 h), over 1000 µM; in [6] (Homo sapiens, MCF7), over 1000 µM; in [6] (Homo sapiens, MCF7, 96 h) it was over 1000 µM.
